Assay results reported in ChEMBL document CHEMBL1201862, “PubChem BioAssay data set” (2004).
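Test compounds were applied to cells in 96-well plates for 48 hours at 5 doses. Abbreviation: GI50, concentration required for 50% inhibition of growth.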 Calls of active or inactive are those of the source. No stated cut-off is given here; in the data, active = GI50 up to about 1.1 µM and inactive = higher.

Legend:
Assay in all cases: growth of human tumour cells (NCI), 48 h
CAKI-1 = system: CAKI-1
UACC-62 = system: UACC-62
K562 = system: K562
RXF 393 = system: RXF 393
SK-MEL-28 = system: SK-MEL-28
LXFL 529 = system: LXFL 529
Malme-3M = system: Malme-3M
SK-MEL-5 = system: SK-MEL-5
XF498 = system: XF498
TK-10 = system: TK-10
LOX IMVI = system: LOX IMVI
OVCAR-5 = system: OVCAR-5
SK-OV-3 = system: SK-OV-3
SNB-78 = system: SNB-78
CCRF-CEM = system: CCRF-CEM
EKVX = system: EKVX
SNB-75 = system: SNB-75
SN12C = system: SN12C
HCT-15 = system: HCT-15
MOLT-4 = system: MOLT-4
HT-29 = system: HT-29
ACHN = system: ACHN
U-251 = system: U-251
UO-31 = system: UO-31
RPMI-8226 = system: RPMI-8226
IGROV-1 = system: IGROV-1
DMS-273 = system: DMS-273
SF-295 = system: SF-295
OVCAR-4 = system: OVCAR-4
SF-539 = system: SF-539
SF-268 = system: SF-268
HCC 2998 = system: HCC 2998
KM-20L2 = system: KM-20L2
M14 = system: M14
RXF 631 = system: RXF 631
COLO 205 = system: COLO 205
UACC-257 = system: UACC-257
KM12 = system: KM12
A549 = system: A549
A498 = system: A498
OVCAR-8 = system: OVCAR-8
DMS-114 = system: DMS-114
SW-620 = system: SW-620
HL-60 = system: HL-60
HOP-18 = system: HOP-18
SNB-19 = system: SNB-19
DLD-1 = system: DLD-1
NCI-H522 = system: NCI-H522
NCI-H23 = system: NCI-H23
SK-MEL-2 = system: SK-MEL-2
OVCAR-3 = system: OVCAR-3
SR = system: SR
M19-MEL = system: M19-MEL
HOP-92 = system: HOP-92
786-0 = system: 786-0
NCI-H226 = system: NCI-H226
HCT-116 = system: HCT-116
HOP-62 = system: HOP-62
NCI-H460 = system: NCI-H460
Hs-578T = system: Hs-578T
MDA-MB-231 = system: MDA-MB-231
DU-145 = system: DU-145
BT-549 = system: BT-549
T47D = system: T47D
MDA-MB-435 = system: MDA-MB-435
PC-3 = system: PC-3
MDA-N = system: MDA-N
NCI/ADR-RES = system: NCI/ADR-RES
MCF7 = system: MCF7

Measured: GI50

Cc1nn(-c2ccccc2)c(S)c1C(=O)c1ccccc1
34.6 µM: HCT-15
inactive: CAKI-1 > 100 µM | UACC-62 47.1 µM | K562 39.8 µM | RXF 393 3.41 µM | SK-MEL-28 33.5 µM | LXFL 529 18.2 µM | Malme-3M > 100 µM | SK-MEL-5 28.8 µM | XF498 35.2 µM | TK-10 31.9 µM | LOX IMVI 53.6 µM | OVCAR-5 62.2 µM | SK-OV-3 > 100 µM | SNB-78 24.4 µM | CCRF-CEM 20.5 µM | EKVX 18.6 µM | SNB-75 42.8 µM | SN12C 21.2 µM | MOLT-4 24.4 µM | HT-29 10 µM | ACHN 39.9 µM | U-251 > 100 µM | UO-31 36 µM | RPMI-8226 19.1 µM | IGROV-1 51.2 µM | DMS-273 40.1 µM | SF-295 35.2 µM | OVCAR-4 40.7 µM | SF-539 40.7 µM | SF-268 51.1 µM | HCC 2998 29.8 µM | KM-20L2 53 µM | M14 31.1 µM | RXF 631 27 µM | COLO 205 89.3 µM | UACC-257 76.2 µM | KM12 33 µM | A549 32.2 µM | A498 21 µM | OVCAR-8 14.9 µM | DMS-114 26.4 µM | SW-620 32.6 µM | HL-60 32.1 µM | SNB-19 41 µM | DLD-1 4.85 µM | NCI-H522 36.6 µM | NCI-H23 43.5 µM | SK-MEL-2 > 100 µM
active: HOP-18 < 0.01 µM

O=C(O)C1CC2CC(=O)C1C2 (stereo unspecified)
inactive: CAKI-1 > 100 µM | OVCAR-3 > 100 µM | UACC-62 > 100 µM | SR > 100 µM | K562 > 100 µM | RXF 393 > 100 µM | M19-MEL > 100 µM | SK-MEL-28 > 100 µM | LXFL 529 > 100 µM | HOP-92 > 100 µM | Malme-3M > 100 µM | SK-MEL-5 > 100 µM | XF498 > 100 µM | TK-10 > 100 µM | LOX IMVI > 100 µM | OVCAR-5 > 100 µM | SK-OV-3 > 100 µM | SNB-78 > 100 µM | CCRF-CEM > 100 µM | EKVX > 100 µM | SNB-75 > 100 µM | 786-0 > 100 µM | SN12C > 100 µM | MOLT-4 > 100 µM | HT-29 > 100 µM | ACHN > 100 µM | U-251 > 100 µM | UO-31 > 100 µM | RPMI-8226 > 100 µM | IGROV-1 > 100 µM | DMS-273 > 100 µM | NCI-H226 > 100 µM | SF-295 > 100 µM | OVCAR-4 > 100 µM | SF-539 > 100 µM | SF-268 > 100 µM | HCT-116 > 100 µM | KM-20L2 > 100 µM | M14 > 100 µM | RXF 631 > 100 µM | COLO 205 > 100 µM | UACC-257 > 100 µM | KM12 > 100 µM | A549 > 100 µM | A498 > 100 µM | OVCAR-8 > 100 µM | SW-620 > 100 µM | HOP-62 > 100 µM | HL-60 > 100 µM | HOP-18 > 100 µM | SNB-19 > 100 µM | DLD-1 > 100 µM | NCI-H522 > 100 µM | NCI-H23 > 100 µM | NCI-H460 > 100 µM | SK-MEL-2 > 100 µM

CCCCCCCCCCCCCC(=O)OC(/C=C/C(C)C)C(O)C(O)C(OC)C(=O)NC1CCCCN(C)C1=O (stereo unspecified)
6 µM: HCT-15
active: SR 0.773 µM | IGROV-1 0.457 µM | DMS-273 0.817 µM | HCT-116 0.927 µM | A549 0.575 µM | NCI-H460 0.687 µM
inactive: CAKI-1 1.19 µM | OVCAR-3 5.12 µM | UACC-62 3.21 µM | K562 2.59 µM | RXF 393 1.45 µM | M19-MEL 3.48 µM | SK-MEL-28 3.61 µM | LXFL 529 2.97 µM | HOP-92 4 µM | Hs-578T > 10 µM | MDA-MB-231 1.86 µM | Malme-3M 2.11 µM | SK-MEL-5 3.19 µM | TK-10 7.05 µM | LOX IMVI 7.23 µM | OVCAR-5 4.36 µM | SK-OV-3 4.49 µM | SNB-78 4.8 µM | CCRF-CEM 3.95 µM | DU-145 > 10 µM | EKVX 9.06 µM | SNB-75 7.94 µM | 786-0 1.28 µM | SN12C 3.23 µM | BT-549 > 10 µM | MOLT-4 2.7 µM | HT-29 6.3 µM | ACHN 4.31 µM | U-251 6.5 µM | UO-31 1.34 µM | RPMI-8226 2.07 µM | T47D > 10 µM | NCI-H226 4.85 µM | MDA-MB-435 5.25 µM | PC-3 7.48 µM | SF-295 3.95 µM | OVCAR-4 6.12 µM | MDA-N > 10 µM | SF-539 3.62 µM | SF-268 5.27 µM | HCC 2998 7.96 µM | KM-20L2 2.94 µM | M14 1.56 µM | RXF 631 1.18 µM | COLO 205 1.85 µM | UACC-257 4.84 µM | KM12 7.71 µM | A498 4.67 µM | OVCAR-8 5.28 µM | DMS-114 1.2 µM | NCI/ADR-RES > 10 µM | SW-620 1.36 µM | HOP-62 3.15 µM | HL-60 1.74 µM | HOP-18 3.54 µM | SNB-19 1.45 µM | DLD-1 1.56 µM | MCF7 1.93 µM | NCI-H522 8.73 µM | NCI-H23 9.91 µM | SK-MEL-2 4.2 µM

NN/C(Cc1ccccc1)=N/NC(N)=S
72.6 µM: HCT-15
inactive: UACC-62 > 100 µM | K562 > 100 µM | RXF 393 > 100 µM | M19-MEL > 100 µM | SK-MEL-28 > 100 µM | LXFL 529 > 100 µM | HOP-92 > 100 µM | Malme-3M > 100 µM | XF498 > 100 µM | TK-10 > 100 µM | LOX IMVI 82.6 µM | OVCAR-5 > 100 µM | SK-OV-3 > 100 µM | CCRF-CEM 54.1 µM | EKVX 97.3 µM | SNB-75 > 100 µM | 786-0 > 100 µM | MOLT-4 49.9 µM | HT-29 > 100 µM | ACHN 62.5 µM | U-251 > 100 µM | UO-31 > 100 µM | RPMI-8226 > 100 µM | IGROV-1 > 100 µM | DMS-273 > 100 µM | NCI-H226 > 100 µM | SF-295 > 100 µM | OVCAR-4 > 100 µM | SF-539 > 100 µM | SF-268 > 100 µM | HCC 2998 > 100 µM | KM-20L2 > 100 µM | M14 > 100 µM | RXF 631 > 100 µM | COLO 205 > 100 µM | UACC-257 > 100 µM | KM12 96.4 µM | A549 > 100 µM | A498 > 100 µM | OVCAR-8 > 100 µM | DMS-114 41.3 µM | SW-620 > 100 µM | HOP-62 > 100 µM | HL-60 63 µM | HOP-18 24 µM | DLD-1 > 100 µM | NCI-H522 14.6 µM | NCI-H23 > 10 µM | NCI-H460 > 100 µM | SK-MEL-2 > 100 µM

COc1ccc(C[P+]2(c3ccccc3)CCCCC2)cc1.O=[N+]([O-])c1ccc(C[P+]2(c3ccccc3)CCCCC2)cc1.[O-][Cl+3]([O-])([O-])[O-].[O-][Cl+3]([O-])([O-])[O-]
inactive: CAKI-1 > 100 µM | OVCAR-3 41 µM | UACC-62 39.2 µM | K562 56.1 µM | RXF 393 95.9 µM | SK-MEL-28 42.2 µM | LXFL 529 16.4 µM | Malme-3M 19.3 µM | SK-MEL-5 23.7 µM | XF498 > 100 µM | TK-10 > 100 µM | LOX IMVI 67.5 µM | OVCAR-5 > 100 µM | SK-OV-3 > 100 µM | CCRF-CEM > 100 µM | EKVX > 100 µM | SNB-75 > 100 µM | 786-0 > 100 µM | SN12C 70 µM | MOLT-4 63.8 µM | HT-29 10 µM | ACHN > 100 µM | U-251 > 100 µM | UO-31 > 100 µM | RPMI-8226 24.9 µM | IGROV-1 47.6 µM | DMS-273 60 µM | SF-295 > 100 µM | OVCAR-4 > 100 µM | SF-539 > 100 µM | SF-268 > 100 µM | HCC 2998 > 100 µM | M14 66.2 µM | RXF 631 > 100 µM | COLO 205 52.5 µM | UACC-257 29.6 µM | KM12 75.5 µM | A549 > 100 µM | A498 > 100 µM | OVCAR-8 > 100 µM | DMS-114 36.1 µM | SW-620 94.6 µM | HOP-62 77.1 µM | HL-60 20.6 µM | HOP-18 15.4 µM | SNB-19 89.7 µM | DLD-1 > 100 µM | NCI-H23 66.8 µM | NCI-H460 71.6 µM | SK-MEL-2 > 100 µM
> 100 µM: HCT-15
